Values joined by “and” are separate entries in the source; they are usually repeats but may differ in a detail not shown here. Equal entries are not always repeated. Where two headings read alike, the source gives them in different places.

Data set [1] relates to HIV-1IIIB. The data set is described as follows: Combined antiviral activity assay (p24 ELISA, CompuSyn). In kind it is cell-based. A general note: An ELISA detects its analyte on a solid surface through an enzyme-linked reagent.
In data set [2] the test system is HIV-1TC-1 (CRF01_AE). The settings on record: HIV-1TC-1, PBMC, p24.
Data set [3] has as its system HIV-1KIZ011 (CRF07_BC). The experiment in a line: microbe, parasite or virus in culture. The settings on record: Human immunodeficiency virus 1, PBMC.
Data set [4] is described as follows: Cytotoxicity MTT assay in PBMCs. It counts as cell-based. The settings on record: human, peripheral blood mononuclear cells (PBMCs), PBMC. (Tetrazolium dyes change colour on reduction, which living cells bring about.)
Data set [5] concerns HIV-1IIIB. The data set is described as follows: HIV-1IIIB-induced cytopathic effect (syncytia counting) in C8166 cells. In general terms: Protection from cytopathic effect is a common read-out in antiviral testing.
Data set [6] has as its system HIV-1KIZ011 (CRF07_BC). The settings on record: HIV-1KIZ011, PBMC, p24.
In data set [7] the test system is HIV-1_4755-5. The experiment in a line: microbe, parasite or virus in culture. The settings on record: Human immunodeficiency virus 1, C8166.
Details of data set [8]: method as in CTR20240167. The settings on record: healthy adults, single-dose administration; ref CTR20240167; cited from earlier work.
Data set [9] has as its system HIV-1A17. The settings on record: HIV-1A17, C8166, p24.
Data set [10] has as its system NL4-3. The data set is described as follows: microbe, parasite or virus in culture. In kind it is cell-based. The settings on record: Human immunodeficiency virus 1, NL43; NL4-3, p24.
Data set [11] deals with pNL4-3gp41(36G) V38A, N42T. The settings on record: C8166, p24.
For data set [12], the system named is HIV-1IIIB. The experiment in a line: microbe, parasite or virus in culture. It counts as cell-based. The settings on record: Human immunodeficiency virus 1, MT4, MTT.
For data set [13], the system named is HIV-1IIIB.
Data set [14] deals with HIV-1WAN (CRF01_AE). The settings on record: PBMC, p24.
A short description of data set [15]: Cytotoxicity MTT assay in C8166 cells. In kind it is cell-based. The settings on record: human.
Data set [16] deals with drug-resistant strains. The experiment in a line: microbe, parasite or virus in culture. It counts as cell-based. The settings on record: Human immunodeficiency virus 1; panel of drug-resistant strains; read-out: EC50 range.
The test system of data set [17] is NL4-3IN-R263K. The data set is described as follows: microbe, parasite or virus in culture. It counts as cell-based. The settings on record: Human immunodeficiency virus 1; read-out: EC50.
For data set [18], the system named is HIV-1_4755-5. The settings on record: HIV-1_4755-5, C8166, p24.
The subject of data set [19] is HIV-1DRACC017. The data set is described as follows: microbe, parasite or virus in culture. It counts as cell-based. The settings on record: for EC50: Human immunodeficiency virus 1, HIV-1DRACC017, p24.
Data set [20] relates to HIV-1TC-1 (CRF01_AE). The experiment in a line: microbe, parasite or virus in culture. The settings on record: Human immunodeficiency virus 1, PBMC.
For data set [21], the target named is HIV-1 mutant N155H integrase (Human immunodeficiency virus type 1 group M subtype B, UniProt P04585, N1302H). The experiment in a line: biochemical. The settings on record: HIV-1N155H integrase, mean n = 4.
Data set [22] in a line: Cytotoxicity MTT assay in MT4 cells. The settings on record: human. In kind it is cell-based.
Data set [23] deals with HIV-1IIIB. The data set is described as follows: qPCR determination of Late-RT, 2-LTR and Alu-LTR in infected C8166 cells. In kind it is cell-based.
The test system of data set [24] is HIV-1WAN (CRF01_AE). The data set is described as follows: microbe, parasite or virus in culture. The settings on record: Human immunodeficiency virus 1, PBMC.
For data set [25], the system named is HIV-1IIIB. The data set is described as follows: microbe, parasite or virus in culture. The settings on record: Human immunodeficiency virus 1, C8166, HIV-1IIIB.
Data set [26] concerns HIV-1A17. The data set is described as follows: microbe, parasite or virus in culture. The settings on record: Human immunodeficiency virus 1, C8166.
Data set [27] relates to clinical isolated strains. The data set is described as follows: microbe, parasite or virus in culture. It counts as cell-based. The settings on record: Human immunodeficiency virus 1, read-out: EC50 range.
Setting [28] is: p24 (Table 4, resistance study).

`CC(C)OC(=O)[C@H](C)N[P@](=O)(CO[C@H](C)Cn1cnc2c(N)ncnc21)Oc1ccccc1` [TAF, Tenofovir alafenamide]: in [1] (combination ACC017 + FTC + TAF), the “DRI Value ED75” value is listed as 4.78, the “DRI Value ED90” value is 6.99 and the “DRI Value ED95” value came to 8.96. In data set [1] (combination DTG + FTC + TAF), the “DRI Value ED75” value is 4.40, the “DRI Value ED90” value is listed as 6.33 and the “DRI Value ED95” value was determined as 8.18.

As to `C[C@H]1N2C(=O)c3c(O)c(=O)c(C(=O)NCc4ccc(F)cc4F)cn3C[C@@H]2OCC12CC2` [ACC017], the “SI (CC50/EC50)” value in data set [2] is given as 138,545.45; in data set [5] (HIV-1IIIB, C8166, syncytia), 34,525.42; in data set [6] it was 46,181.82; in data set [9], 2393.65; in data set [11], 59,911.76; in data set [13] (C8166, p24), 34,525.42. The “SI (CC50/EC50)” value amounted to 8561.80 in data set [14] and 2233.55 in data set [18]. For the same compound, the concentration for a half-maximal effect (EC50) in data set [3] was found to be 0.33 ± 0.06 nM; in data set [5] (Human immunodeficiency virus 1, C8166), 0.59 ± 0.09 nM; in [7], 9.12 ± 2.31 nM; in [10], 1.7 ± 0.47 nM; in data set [11] it was 0.34 ± 0.09 nM; in data set [12], 0.05147 ± 2e-05 nM. Besides, the concentration for a half-maximal effect (EC50) in data set [16] was 0.34 to 9.12 nM; in data set [17] it was 28.1 ± 4.22 nM; in data set [19], greater than 5000 nM; in data set [20] it was 0.11 ± 0.06 nM; in data set [24], 1.78 ± 0.29 nM; in data set [25] (C8166, p24 (Table 1)), 0.59 ± 0.09 nM. Further, the EC50 in data set [25] (C8166, p24, 20% human serum) is 8.28 ± 2.02 nM; in data set [25] (setting [28]) it was 1.25 ± 0.48 nM; in [26], 8.51 ± 0.25 nM; in data set [27] it was 0.11 to 1.78 nM. This compound had a cytotoxic concentration (CC50) at 7 d in data set [4] of 15200 nM. Further, the Safety and tolerability entry in [8] is “favorable safety and tolerability profile”. For the same compound, the “Fold increase of EC50 in the presence of 20% human serum” value in [13] (C8166, p24, with vs without 20% human serum) is 14.03 fold. The figures for the CC50 at 3 d in data set [15] and in data set [22] were 20370 ± 100 nM and 24800 ± 80 nM, respectively. In data set [21], half-maximal inhibition (IC50) required 9.91 nM. Besides, the “DRI Value ED75” value was 5.25 in data set [1] (combination ACC017 + 3TC); 4.07 in data set [1] (combination ACC017 + ACC007); 1.77 and 3.46 in [1] (combination ACC017 + ACC017); 2.89 in data set [1] (combination ACC017 + DTG); 4.62 in [1] (combination ACC017 + FTC + TAF). For the same compound, the “DRI Value ED90” value in [1] (combination ACC017 + 3TC) was 9.07; in data set [1] (combination ACC017 + ACC007), 6.48; in data set [1] (combination ACC017 + ACC017), 2.06 and 2.77; in data set [1] (combination ACC017 + DTG), 2.45; in [1] (combination ACC017 + FTC + TAF) it was 6.79. The “DRI Value ED95” value in data set [1] (combination ACC017 + 3TC) was 13.15; in data set [1] (combination ACC017 + ACC007), 8.97; in data set [1] (combination ACC017 + ACC017), 2.32 and 2.42; in data set [1] (combination ACC017 + DTG), 2.27; in data set [1] (combination ACC017 + FTC + TAF), 9.05. Besides, in [23] (C8166, HIV-1IIIB MOI 0.5, 100 nM ACC017, 4-8 h), the “Late-RT level versus positive control (PC) group” value is “no significant difference compared with the PC group”. In addition, the “2-LTR level (nuclear entry)” value in data set [23] (C8166, HIV-1IIIB MOI 0.5, 100 nM ACC017, 8, 12, 24 h) was “unable to block the nuclear entry process”. In [23] (C8166, HIV-1IIIB MOI 0.5, 100 nM ACC017, 24 h, nested PCR), the “Alu-LTR level (integrated provirus)” value is listed as “significantly reduced”.

As for `Nc1ccn([C@@H]2CS[C@H](CO)O2)c(=O)n1` [3TC, Lamivudine], the EC50 in data set [10] stood at 198 ± 101 nM; in data set [17], 180 ± 38.5 nM; in [19] it was 322 ± 34.6 nM; in data set [25] (setting [28]) it was 181 ± 41.5 nM. Also, the “FC (Fold Change) EC50 (HIV-1DRACC017)/EC50 (HIV-1IIIB)” value in data set [19] (p24) is on record as 1.78. Further, the entries for the “DRI Value ED75” value in [1] (combination ACC017 + 3TC) and in data set [1] (combination DTG + 3TC) were 6.21 and 5.03, respectively. Further, the results for the “DRI Value ED90” value in data set [1] (combination ACC017 + 3TC) and in [1] (combination DTG + 3TC) were 7.90 and 6.79, respectively. Also, the “DRI Value ED95” value in data set [1] (combination ACC017 + 3TC) worked out at 9.30; in data set [1] (combination DTG + 3TC), 8.33.

Usually EC50 stands for the concentration that produces a half-maximal response. Usually CC50 stands for the concentration giving 50% cytotoxicity. For orientation: IC50 means the concentration that inhibits the measured activity by half. The low end stands for higher potency, the high end for lower potency.

The record behind these values is paper PMC12846677 (Viruses, 2025).
